Experimental data taken from paper PMC9186491, “Novel Small Molecule Tyrosine Kinase 2 Pseudokinase Ligands Block Cytokine-Induced TYK2-Mediated Signaling Pathways” (Frontiers in Immunology, 2022).
Like-named read-outs stand apart in the source and are kept apart here.

Legend:
[1] = target: hERG (Homo sapiens, UniProt Q12809); assay: hERG IC50
[2] = system: IFNα-induced CXCL10 production in human whole blood; assay: IFNα-induced CXCL10 production in human whole blood; format: cell-based; conditions: human whole blood, IFNα 16 hours; read-out: TYK2-associated IFNα-induced-CXCL10 Production in Human Whole Blood: IC50
Description: Human whole blood [drawn with Ethylenediaminetetraacetic acid (EDTA) as anti-coagulant] was obtained from Zen-Bio Inc. (Durham, NC). […] The plasma was collected for detection of C-X-C motif chemokine 10 (CXCL10, IP10) secretion. CXCL10 was measured by Human CXCL10/IP-10 AlphaLISA Kit (PerkinElmer, #AL259 C/F) according to the manufacturer’s instructions.

[3] = system: IL23-induced TYK2/phosphoSTAT3 (Tyr705) in Kit225 T cells; assay: Kit225 T cell assay for IL23-induced TYK2/phosphoSTAT3 activity; format: cell-based, human; conditions: Homo sapiens; Kit225 cells, 100 ng/mL IL23, AlphaLISA; read-out: IC50 IL23-induced-STAT3 Phosphorylation
Description: The cells were treated with serially diluted compounds for 1 hour and stimulated with 100 ng/mL human recombinant IL23 (R&D Systems) for 20 minutes. The treated cells were then lysed and cellular phosphorylated-STAT3 (Tyr705) levels were measured by AlphaLISA (PerkinElmer, Cat# ALSU-PST3) according to the manufacturer’s instructions.

[4] = target: JAK2 (Homo sapiens, UniProt O60674); assay: Z'LYTE JAK kinase inhibition assay, JAK2; format: biochemical; conditions: read-out: JAK Catalytic Selectivity (IC50) JAK2
[5] = target: CYP450 3A4 (Homo sapiens, UniProt P08684); assay: CYP450 inhibition, 3A4; format: in vitro ADME
[6] = LM T1/2, Mk; format: in vitro ADME; conditions: monkey, liver microsomes
[7] = system: JAK1-dependent IL6-induced phosphorylation of STAT3 (Tyr705) in TF1 cells; assay: JAK cellular selectivity assay, IL6-pSTAT3 (JAK1); format: cell-based; conditions: Homo sapiens, TF-1; TF1 cells; read-out: JAK Cellular Selectivity (IC50) IL6-pSTAT3 (JAK1)
Description: The cells were then ready for the assay after incubating for 2 hours in a humidified, 5% CO2 cell culture incubator at 37°C. […] The curve fit was generated, and statistical analysis was performed using GraphPad Prism. IC50 values were derived by non-linear regression analysis and defined as the compound concentration at which the response level was reduced to half of its maximum relative to a DMSO control.

[8] = system: IFNα-induced TYK2-mediated IRF activity in Jurkat-Dual T cells; assay: Jurkat T cell reporter assay for IFNα-induced TYK2-mediated IRF activity; format: cell-based; conditions: Homo sapiens, SEAP
Excerpt: Jurkat-Dual™ T cells (In vivogen, jktd-isnf) were purchased from In vivogen (San Diego, CA). The cells feature the dual-reporter system, with a Lucia luciferase gene driven by an interferon-β (IFN-β) minimal promoter fused to the NFκB consensus transcriptional response element and the c-Rel binding site, as well as a secreted embryonic alkaline phosphatase (SEAP) reporter gene under the control of an IFN-stimulated gene 54 (ISG54) minimal promoter in conjunction with five IFN-stimulated response elements. With the dual-reporter design, Jurkat-Dual™ cells allow the simultaneous investigation of both the NFκB pathway, by monitoring the Lucia luciferase, and the interferon regulatory factor (IRF) pathway, by assessing the activity of SEAP. In this study, the Jurkat-Dual™ T cells were plated at a sterilized U-shaped 96-well plate in RPMI (Thermo Fisher) containing 10% heat-inactivated Fetal Bovine Serum (FBS) (Thermo Fisher) and 100 U/mL Penicillin-Streptomycin (Thermo Fisher) at a density of 2.0 × 10^6/mL. Seeded cells were treated with serially diluted compounds and stimulated with 80 ng/mL human recombinant IFNα (Biolegend, # 592702) overnight in a humidified, 5% CO2 cell culture incubator at 37°C. Activity of SEAP was then detected from the cell cultured supernatant according to the manufacturer’s instructions.

[9] = target: CYP450 2D6 (Homo sapiens, UniProt P10635); assay: CYP450 inhibition, 2D6; format: in vitro ADME
[10] = PPB, M; format: in vitro ADME; conditions: mouse, plasma
[11] = 3A4(m), read-out: CYP450 3A4(m)
[12] = 3A4(t), read-out: CYP450 3A4(t)

Sequence of CYP450 2D6 (P10635 whole entry): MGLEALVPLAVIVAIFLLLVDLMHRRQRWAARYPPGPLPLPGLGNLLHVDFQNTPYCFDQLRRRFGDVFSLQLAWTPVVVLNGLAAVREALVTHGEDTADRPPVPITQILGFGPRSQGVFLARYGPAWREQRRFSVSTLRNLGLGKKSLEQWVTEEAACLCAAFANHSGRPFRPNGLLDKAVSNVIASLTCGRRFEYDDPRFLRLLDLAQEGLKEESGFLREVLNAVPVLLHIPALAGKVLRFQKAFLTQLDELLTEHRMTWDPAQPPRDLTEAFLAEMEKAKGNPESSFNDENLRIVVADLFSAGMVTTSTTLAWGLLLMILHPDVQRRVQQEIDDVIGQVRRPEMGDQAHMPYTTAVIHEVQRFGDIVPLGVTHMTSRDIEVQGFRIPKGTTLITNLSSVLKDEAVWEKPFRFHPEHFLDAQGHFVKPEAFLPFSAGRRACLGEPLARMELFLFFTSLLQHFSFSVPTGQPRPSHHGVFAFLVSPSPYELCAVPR
Sequence of JAK2 (O60674 whole entry): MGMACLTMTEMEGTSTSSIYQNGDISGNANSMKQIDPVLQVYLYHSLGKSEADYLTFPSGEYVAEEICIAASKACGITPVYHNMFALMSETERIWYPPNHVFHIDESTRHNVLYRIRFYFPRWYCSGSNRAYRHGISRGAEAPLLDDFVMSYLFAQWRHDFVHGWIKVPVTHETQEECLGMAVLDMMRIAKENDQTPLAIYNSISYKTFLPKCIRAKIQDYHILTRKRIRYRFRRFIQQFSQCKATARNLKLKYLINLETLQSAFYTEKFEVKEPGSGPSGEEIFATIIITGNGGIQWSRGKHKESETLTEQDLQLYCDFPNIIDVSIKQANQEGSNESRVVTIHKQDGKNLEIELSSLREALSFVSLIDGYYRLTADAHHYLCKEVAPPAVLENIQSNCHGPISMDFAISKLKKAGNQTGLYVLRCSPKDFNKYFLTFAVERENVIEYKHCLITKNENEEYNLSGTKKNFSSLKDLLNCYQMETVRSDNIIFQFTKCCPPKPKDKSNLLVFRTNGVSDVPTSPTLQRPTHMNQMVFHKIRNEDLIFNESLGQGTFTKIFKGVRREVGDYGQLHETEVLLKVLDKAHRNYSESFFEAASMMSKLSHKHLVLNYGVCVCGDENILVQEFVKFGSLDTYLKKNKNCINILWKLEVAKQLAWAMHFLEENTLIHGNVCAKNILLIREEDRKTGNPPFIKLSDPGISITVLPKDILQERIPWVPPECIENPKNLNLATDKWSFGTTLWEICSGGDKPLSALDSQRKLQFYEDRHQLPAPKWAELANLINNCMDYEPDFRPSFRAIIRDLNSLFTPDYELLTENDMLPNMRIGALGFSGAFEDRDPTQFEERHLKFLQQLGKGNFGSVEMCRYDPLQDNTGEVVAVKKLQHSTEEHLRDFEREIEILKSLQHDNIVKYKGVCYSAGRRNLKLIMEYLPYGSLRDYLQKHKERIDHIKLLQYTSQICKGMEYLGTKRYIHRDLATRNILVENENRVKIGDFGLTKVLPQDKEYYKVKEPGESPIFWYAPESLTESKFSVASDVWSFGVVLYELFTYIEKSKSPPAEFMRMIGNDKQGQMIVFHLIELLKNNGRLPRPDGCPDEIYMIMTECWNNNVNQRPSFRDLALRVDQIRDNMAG
Sequence of CYP450 3A4 (P08684 whole entry): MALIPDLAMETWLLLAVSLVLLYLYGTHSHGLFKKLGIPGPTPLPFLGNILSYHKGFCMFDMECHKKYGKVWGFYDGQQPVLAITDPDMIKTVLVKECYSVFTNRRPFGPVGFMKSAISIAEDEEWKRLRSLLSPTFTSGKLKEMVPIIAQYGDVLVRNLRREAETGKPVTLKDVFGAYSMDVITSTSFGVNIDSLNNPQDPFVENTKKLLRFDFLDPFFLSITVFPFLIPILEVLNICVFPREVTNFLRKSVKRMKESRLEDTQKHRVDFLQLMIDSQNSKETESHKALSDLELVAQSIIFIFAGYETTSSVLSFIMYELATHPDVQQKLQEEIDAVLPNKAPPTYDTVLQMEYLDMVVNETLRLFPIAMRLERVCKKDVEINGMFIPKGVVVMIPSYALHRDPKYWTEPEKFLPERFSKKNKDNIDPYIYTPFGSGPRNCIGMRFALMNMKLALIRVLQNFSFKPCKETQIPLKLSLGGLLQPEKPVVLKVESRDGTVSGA
Sequence of hERG (Q12809 whole entry): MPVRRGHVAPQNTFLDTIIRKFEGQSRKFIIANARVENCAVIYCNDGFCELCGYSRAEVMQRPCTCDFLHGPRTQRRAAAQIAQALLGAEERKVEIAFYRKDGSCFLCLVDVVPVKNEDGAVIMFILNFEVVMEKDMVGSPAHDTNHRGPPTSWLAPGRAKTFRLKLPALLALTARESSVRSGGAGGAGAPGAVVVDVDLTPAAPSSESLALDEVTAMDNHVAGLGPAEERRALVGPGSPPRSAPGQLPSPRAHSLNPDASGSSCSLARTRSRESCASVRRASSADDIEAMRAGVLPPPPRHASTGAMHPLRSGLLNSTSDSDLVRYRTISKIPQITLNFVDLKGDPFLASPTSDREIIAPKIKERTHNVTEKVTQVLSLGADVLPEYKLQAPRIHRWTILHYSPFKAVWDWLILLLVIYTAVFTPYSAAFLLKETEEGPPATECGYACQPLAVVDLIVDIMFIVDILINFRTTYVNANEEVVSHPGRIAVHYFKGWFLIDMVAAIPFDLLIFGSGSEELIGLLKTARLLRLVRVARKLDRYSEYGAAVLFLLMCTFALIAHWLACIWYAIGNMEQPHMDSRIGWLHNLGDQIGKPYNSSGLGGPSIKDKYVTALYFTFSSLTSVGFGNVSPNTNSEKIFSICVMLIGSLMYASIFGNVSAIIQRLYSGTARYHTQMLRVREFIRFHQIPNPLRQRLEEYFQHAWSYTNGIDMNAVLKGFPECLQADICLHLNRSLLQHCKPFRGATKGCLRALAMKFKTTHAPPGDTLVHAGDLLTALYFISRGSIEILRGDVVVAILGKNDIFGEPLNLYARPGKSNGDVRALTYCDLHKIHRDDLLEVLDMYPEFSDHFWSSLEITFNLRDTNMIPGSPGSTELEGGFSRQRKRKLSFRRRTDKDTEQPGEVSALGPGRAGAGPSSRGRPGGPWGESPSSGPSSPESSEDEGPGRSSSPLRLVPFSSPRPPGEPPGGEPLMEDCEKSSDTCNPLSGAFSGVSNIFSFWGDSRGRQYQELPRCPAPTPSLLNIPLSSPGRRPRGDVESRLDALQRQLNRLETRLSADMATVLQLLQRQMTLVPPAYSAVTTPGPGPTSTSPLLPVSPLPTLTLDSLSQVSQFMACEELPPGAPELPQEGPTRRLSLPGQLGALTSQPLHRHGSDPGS

| Compound | IC50 [1] | IC50 [2] | IC50 [3] | IC50 [4] | IC50 [5, 11] | IC50 [5, 12] | half-life [6] | IC50 [7] | IC50 [8] | IC50 [9] | fraction unbound [10] |
| --- | --- | --- | --- | --- | --- | --- | --- | --- | --- | --- | --- |
| CNC(=O)c1nnc(NC(=O)N2CCC2)cc1Nc1cccc(-c2ncn(C)n2)c1OC [SHR8751] | > 30000 nM | 460 nM | 27 nM | > 10000 nM | > 30000 nM | > 30000 nM | > 99 min | 5800 ± 3700 nM | 48 nM | > 30000 nM | 0.35 |
| CNC(=O)c1nnc(NC(=O)C2CC2)c2[nH]c(-c3ccc(N)cc3OC)cc12 [SHR2396] | – | – | 5.9 nM | > 10000 nM | > 30000 nM | > 30000 nM | 50 min | 150 ± 59 nM | 9.7 nM | > 30000 nM | 0.0292 |
| [2H]C([2H])([2H])NC(=O)c1nnc(NC(=O)N2CCC2)cc1Nc1cccc(-c2ncn(C)n2)c1OC [SHR9332] | > 30000 nM | 480 nM | 79 nM | > 10000 nM | > 30000 nM | > 30000 nM | 30.9 min | 2800 ± 1700 nM | 55 nM | > 30000 nM | 0.249 |
